From patent US20260294928A1, “BTK INHIBITOR FOR TREATING MULTIPLE SCLEROSIS” (BIOGEN MA INC., priority 2023, published 2026)
Like-named read-outs stand apart in the source and are kept apart here.

Key:
[1] = Part 1 safety and tolerability in healthy subjects; format: in vivo, human; settings: all regimens tested, Part 1 (150, 250, 350 mg; fed, fasted, divided dose)
Method: (§1) In a single center, open-label study, several formulations and treatment regimens were explored to reduce pharmacokinetic (PK) variability and achieve steady state Ctrough>221 ng/mL while limiting the drug exposure (Cmax). The study included 3 parts.
(§2) IR tablet (50 mg) was tested in 19 healthy subjects at different dose levels (150, 250 and 350 mg) and in the fed (moderate fat and high fat) and fasted state and as a divided daily dose (12 h apart). Subject were treated with BIIB091 up to 4 periods. To facilitate comparisons between different regimens, subjects were randomized into 2 groups (Group 1 and Group 2) pre-dose on Day 1 in Periods 1, 3 and 4. Period 2 was utilized as a reference period, where all subjects were dosed with the BIIB091 IR DiC (drug in capsule).

[2] = Part 1 PK study of BIIB091 formulations and regimens in healthy subjects; format: in vivo, human
Method: as §1, §2

[3] = target: CYP3A4 (Homo sapiens, UniProt P08684); test: Part 2 PK of BIIB091 with CYP3A4 inhibitor itraconazole, fed; format: in vivo; settings: role: substrate, 200 mg BIIB091 IR tablet
CYP3A4, sequence (P08684 whole entry): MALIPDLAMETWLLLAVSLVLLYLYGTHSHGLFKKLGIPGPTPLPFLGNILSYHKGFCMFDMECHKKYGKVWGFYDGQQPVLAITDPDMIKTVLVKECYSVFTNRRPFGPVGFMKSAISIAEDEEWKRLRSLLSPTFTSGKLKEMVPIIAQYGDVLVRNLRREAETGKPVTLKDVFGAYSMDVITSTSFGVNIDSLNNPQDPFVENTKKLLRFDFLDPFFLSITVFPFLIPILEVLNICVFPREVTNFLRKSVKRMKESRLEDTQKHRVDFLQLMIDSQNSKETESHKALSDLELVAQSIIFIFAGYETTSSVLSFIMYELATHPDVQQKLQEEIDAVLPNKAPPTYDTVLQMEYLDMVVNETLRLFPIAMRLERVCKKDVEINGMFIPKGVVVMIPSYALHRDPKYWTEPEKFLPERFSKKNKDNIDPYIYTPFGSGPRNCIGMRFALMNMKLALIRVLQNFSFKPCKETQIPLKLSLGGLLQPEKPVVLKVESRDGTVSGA
Method: (§3) A new cohort of 12 healthy male and female (non pregnant and non-lactating) subjects were enrolled and dosed. Subjects were randomized into two groups of 6 subjects, to receive the regimen sequence MNO across 3 study periods (Group 1) or regimen sequence MNP across 3 study periods (Group 2). Both groups were dosed in the fed state in Periods 1 and 2, i.e. BIIB091 alone in the fed state in Period 1, and BIIB091 with the CYP3A4 inhibitor itraconazole in the fed state in Period 2. For the PPI assessment in Period 3, subjects were dosed with BIIB091 co-administered with rabeprazole in the fasted or fed state in order to assess PK under each of these conditions.

[4] = Part 2 PK of BIIB091 with PPI rabeprazole, fasted or fed; format: in vivo, human; settings: 200 mg BIIB091 IR tablet with rabeprazole 20 mg
Method: as §3

[5] = Part 3 multiple dose PK, 250 mg BID x 7 days with moderate fat meal; format: in vivo, human; settings: 250 mg BID 12 h apart x 7 days
Method: (§4) 250 mg BIIB091 was dosed in a new cohort of 10 healthy subjects twice a day (BID) 12 h apart with a moderate fat meal for 7 days. […] Geomean Ctau (CV %) was 407 (48.3%) ng/mL which exceeded the target of >221 ng/mL, with 9/10 subjects achieving the target.

[6] = system: CD69 upregulation on total B cells (CD19+); test: CD69 inhibition on ex vivo stimulated total B cells (CD19+), Part 3; format: in vivo, human; settings: for inhibition at 250 mg: Homo sapiens, B-cell, 250 mg BID
Method: as §4

Cn1cc(Nc2nccc(-c3ccc4c(c3)CN(C3COC3)CC[C@H]4NC(=O)c3cn(C(C)(C)C)nn3)n2)cn1 [Compound 1, (R)-1-(tert-butyl)-N-(8-(2-((1-methyl-1H-pyrazol-4-yl)amino)pyrimidin-4-yl)-2-(oxetan-3-yl)-2,3,4,5-tetrahydro-1H-benzo[c]azepin-5-yl)-1H-1,2,3-triazole-4-carboxamide]
safety and tolerability [1]: generally safe and well tolerated | C (Cmax) with HF food ([2]; high fat food): reduced | T (Tmax) with HF food ([2]; high fat food): delayed | AUC with MF meal ([2]; moderate fat meal): similar | C with MF meal ([2]; moderate fat meal): similar | Tmax with MF meal compared to HF ([2]; moderate fat meal): less of a delay in Tmax compared to high fat | CYP3A4 substrate ([3]; fed, with itraconazole 200 mg): moderate CYP3A4 substrate | BIIB091 exposure with CYP3A4 inhibitor co-administration ([3]; inhibitor itraconazole 200 mg, moderate-fat fed): increased | BIIB091 bioavailability with PPI co-administration, fasted state ([4]; fasted): decreased | BIIB091 bioavailability with PPI together with food, compared with fasted condition ([4]; moderate-fat fed): increased | accumulation ratio for AUCtau [5]: 1.75 | accumulation ratio for Cmax [5]: 1.49 | subjects achieving the target Ctau of >221 ng/mL [5]: 9/10 | concentration at 12 h ([5]; human, in vivo, po, read-out: Geomean Ctau (CV %)): 407 ng/mL | CD69 inhibition at 24 h post final dose ([6]; 250 mg BID x 7 days, 24 h post final dose): returned to baseline | inhibition at 250 mg ([6]; 12 h post-dose, day 1, read-out: CD69 mean inhibition): 86.8% | inhibition at 250 mg ([6]; 12 h post-dose, day 7, read-out: CD69 mean inhibition): 85.4% | inhibition at 250 mg ([6]; Day 1 and 7, from 1 h to 8 h post-dose, ex vivo stimulated B cells, read-out: CD69 inhibition range): 96.5 to 99.2% | inhibition at 250 mg ([6]; Day 1 and 7, from 1 h to 8 h post-dose, ex vivo stimulated B cells, read-out: mean inhibition of CD69 upregulation from Day 1 pre-dose baseline): > 90%
